Test system: proteins in HEK293T cells
Assay: MS-based mapping of FFF probe-modified peptides (isoTOP, sites of labeling)
Format: binding, human
Outline: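 Live cells treated with fragment probes (200-250 μM) in serum-free DMEM, with or without competitor ligands. Proteomes clicked to light/heavy biotin-TEV-azide, streptavidin-enriched, trypsin- then TEV-digested; probe-modified peptides identified by LC-MS/MS with any residue allowed as modified site, isoTOP ratios quantified by CIMAGE.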

For `C#CCCC1(CCC(=O)NC23CC4CC(CC(C4)C2)C3)N=N1` [probe 14, N-((3s,5s,7s)-Adamantan-1-yl)-3-(3-(but-3-yn-1-yl)-3H-diazirin-3-yl)propanamide], the “Labeled Peptide of HLA-A HLAC class I histocompatibility antigen, A-2 alpha” value (Accession P01892, residues of probe-labeled peptide, family Uncategorized) was 46-59, the “Labeled Peptide of HMOX2 Heme oxygenase 2” value (Accession P30519 (r933 prints P03519), residues of probe-labeled peptide, family Enzymes) was 69-87 and the “Labeled Peptide of GHITM Growth hormone-inducible transmembrane protein” value (Accession Q9H3K2, residues of probe-labeled peptide, family Uncategorized) was 218-240. The “Labeled Peptide of GOLPH3 Golgi phophoprotein 3” value (Accession Q9H4A6, residues of probe-labeled peptide, family Adapter, Scaffolding, Modulator Proteins) was 75-90, the “Labeled Peptide of HAUS2 HAUS augmin-like complex subunit 2” value (Accession Q9NVX0, residues of probe-labeled peptide, family Adapter, Scaffolding, Modulator Proteins) was 173-189 and the “Labeled Peptide of FUBP1 Far upstream element-binding protein 1” value (Accession Q96AE4, residues of probe-labeled peptide, family Transcription factors, Regulators) was 593-620. The “Labeled Peptide of HAUS1 HAUS augmin-like complex subunit 1” value (Accession Q96CS2, residues of probe-labeled peptide, family Adapter, Scaffolding, Modulator Proteins) was 94-108, the “Labeled Peptide” value (GOLPH3 Golgi phosphoprotein 3, residues of probe-modified peptide) was 75-90 and the “Labeled Peptide” value (HLA-A HLA class I histocompatibility antigen, A-2 alpha, residues of probe-modified peptide) was 46-59. The “Labeled Peptide” value (HMOX2 Heme oxygenase 2, residues of probe-modified peptide) was 69-87, the “Labeled Peptide” value (LIPA Lysosomal acid lipase (P38571), residues of the probe-labeled peptide) was 255-270 and the “Labeled Peptide” value (MAN2B1 Lysosomal alpha-mannosidase (O00754), residues of the probe-labeled peptide) was 291-305. For the same compound, the “Labeled Peptide” value (MCFD2 (Q8NI22), residues of the probe-labeled peptide) was 103-126, the “Labeled Peptide” value (MSH2 (P43246), residues of the probe-labeled peptide) was 848-871 and the “Labeled Peptide” value (MT-ND2 (P03891), residues of the probe-labeled peptide) was 264-272. For the same compound, the “Labeled Peptide” value (NDUFS1 (P28331), residues of the probe-labeled peptide) was 312-325, the “Labeled Peptide” value (NUP160 (Q12769), residues of the probe-labeled peptide) was 638-661 and the “Labeled Peptide” value (NUP205 (Q92621), residues of the probe-labeled peptide) was 1235-1252. The “Labeled Peptide” value (NUP214 (P35658), residues of the probe-labeled peptide) was 770-783, the “Labeled Peptide” value (NUTF2 (P61970), residues of the probe-labeled peptide) was 91-106 and the “Labeled Peptide” value (NXN Nucleoredoxin (Q6DKJ4), residues of the probe-labeled peptide) was 384-403. For the same compound, the “Labeled Peptide” value (P07384 CAPN1 Calpain-1 catalytic subunit) was 175-193, the “Labeled Peptide (residues) of YWHAQ 14-3-3 protein theta” value (P27348, peptide TAFDEAIAELDTLNEDSYK, PDB 5IQP) was 194-212 and the “Labeled Peptide” value (P30519 HMOX2 Heme oxygenase 2) was 69-87. The “Labeled Peptide” value (P30520 ADSS Adenylosuccinate synthetase isozyme 2) was 431-441, the “Labeled Peptide (residues) of PPP1CC Serine/threonine-protein phosphatase PP1-gamma cat” value (P36873, peptide EIFLSQPILLELEAPLK, PDB 4UT2) was 44-60 and the “Labeled Peptide” value (P48729 CSNK1A1 Casein kinase I isoform alpha) was 84-106. The “Labeled Peptide (residues) of RAB7A Ras-related protein Rab-7a” value (P51149, peptide DEFLIQASPR, PDB 1YHN) was 104-113, the “Labeled Peptide” value (P67870 CSNK2B Casein kinase II subunit beta) was 112-134 and the “Labeled Peptide” value (PCNA (P12004), residues of the probe-labeled peptide) was 118-138. The “Labeled Peptide” value (Q8NI60 ADCK3 Chaperone activity of bc1 complex-like, mitochondr) was 277-295, the “Labeled Peptide” value (Q9H4A6 GOLPH3 Golgi phosphoprotein 3) was 75-90 and the “Labeled Peptide (residues) of RUVBL2 RuyB-like 2” value (Q9Y230, peptide ALESDMAPVLIMATNR, PDB 3UK6) was 315-330. For the same compound, the “Labeled Peptide” value (Q13867 BLMH Bleomycin hydrolase) was 111-124, the “Labeled Peptide” value (protein ADCK3 (Q8NI60), residues of probe-labeled peptide) was 277-295 and the “Labeled Peptide” value (protein ADCK3 Chaperone activity of bc1 complex-like, mitochondr, residues of probe-labeled peptide) was 277-295. The “Labeled Peptide” value (protein ADSS (P30520), residues of probe-labeled peptide) was 431-441, the “Labeled Peptide” value (protein ADSS Adenylosuccinate synthetase isozyme 2, residues of probe-labeled peptide) was 431-441 and the “Labeled Peptide” value (protein AGK (Q53H12), residues of probe-labeled peptide) was 283-304. The “Labeled Peptide” value (protein ALDH18A1 (P54886), residues of probe-labeled peptide) was 650-662, the “Labeled Peptide” value (protein ASNA1 (O43681), residues of probe-labeled peptide) was 131-153 and the “Labeled Peptide” value (protein ATP2A2 (P16615), residues of probe-labeled peptide) was 335-352. The “Labeled Peptide” value (protein ATP2B1 (P20020), residues of probe-labeled peptide) was 824-840, the “Labeled Peptide” value (protein ATP2B4 (P23634), residues of probe-labeled peptide) was 812-828 and the “Labeled Peptide” value (protein ATP5B (P06576), residues of probe-labeled peptide) was 407-422. The “Labeled Peptide” value (protein ATP6V1B2 (P21281), residues of probe-labeled peptide) was 437-457, the “Labeled Peptide” value (protein BLMH (Q13867), residues of probe-labeled peptide) was 111-124 and the “Labeled Peptide” value (protein BLMH Bleomycin hydrolase, residues of probe-labeled peptide) was 111-124. The “Labeled Peptide” value (protein CALM3 Calmodulin (P62158), residues of probe-labeled peptide) was 39-75, the “Labeled Peptide” value (protein CALM3 Calmodulin, residues of probe-labeled peptide) was 39-75 and the “Labeled Peptide” value (protein CAPN1 (P07384), residues of probe-labeled peptide) was 175-193. The “Labeled Peptide” value (protein CAPN1 Calpain-1 catalytic subunit, residues of probe-labeled peptide) was 175-193, the “Labeled Peptide” value (protein CCDCC51 (Q96ER9), residues of probe-labeled peptide) was 86-96 and the “Labeled Peptide” value (protein CLPB Caseinolytic peptidase B protein homolog (Q9H078), residues of probe-labeled peptide) was 630-650. The “Labeled Peptide” value (protein COX15 Cytochrome coxidase assembly protein COX15 homolo (Q7KZN9), residues of probe-labeled peptide) was 296-313, the “Labeled Peptide” value (protein CSNK1A1 Casein kinase I isoform alpha (P48729), residues of probe-labeled peptide) was 84-106 and the “Labeled Peptide” value (protein CSNK1A1 Casein kinase I isoform alpha, residues of probe-labeled peptide) was 84-106. The “Labeled Peptide” value (protein CSNK2B Casein kinase II subunit beta (P67870), residues of probe-labeled peptide) was 112-134, the “Labeled Peptide” value (protein CSNK2B Casein kinase II subunit beta, residues of probe-labeled peptide) was 112-134 and the “Labeled Peptide” value (protein DCAF7 DDB1- and CUL4-associated factor 7 (P61962), residues of probe-labeled peptide) was 82-96. For the same compound, the “Labeled Peptide” value (protein FAH Fumarylacetoacetase (P16930), residues of probe-labeled peptide) was 242-253, the “Labeled Peptide” value (protein FAM114A2 Protein FAM114A2 (Q9NRY5), residues of probe-labeled peptide) was 184-196 and the “Labeled Peptide” value (protein O94826 TOMM70A Mitochondrial import receptor subunit TOM70) was 475-494. For the same compound, the “Labeled Peptide” value (protein O96008 TOMM40 Mitochondrial import receptor subunit TOM40 homolog) was 278-293, the “Labeled Peptide” value (protein P05387 RPLP2 60S acidic ribosomal protein P2) was 50-61 and the “Labeled Peptide” value (protein P31948 STIP1 Stress-induced-phosphoprotein 1) was 416-429. For the same compound, the “Labeled Peptide” value (protein P46977 STT3A Dolichyl-diphosphooligosaccharide--protein glycosy) was 330-340, the “Labeled Peptide” value (protein PABPC1 Polyadenylate-binding protein 1, residues of the probe-labeled peptide) was 114-129 and the “Labeled Peptide” value (protein PCNA Proliferating cell nuclear antigen, residues of the probe-labeled peptide) was 118-138. For the same compound, the “Labeled Peptide” value (protein PCYOX1 Prenylcysteine oxidase 1 (Q9UHG3)) was 37-54, the “Labeled Peptide” value (protein PHB Prohibitin (P35232)) was 241-253 and the “Labeled Peptide” value (protein PLS3 Plastin-3 (P13797)) was 72-85. The “Labeled Peptide” value (protein PPP1CB Serine/threonine-protein phosphate PP1-alpha cat (P62140)) was 43-59, the “Labeled Peptide” value (protein PPP1CC Serine/threonine-protein phosphatase PP1-gamma cat, residues of the probe-labeled peptide) was 44-60 and the “Labeled Peptide” value (protein PPP1CC Serine/threonine-protein phosphate PP1-gamma cat (P36873)) was 44-60. The “Labeled Peptide” value (protein PRPF19 Pre-mRNA-processing factor 19 (Q9UMS4)) was 186-196, the “Labeled Peptide” value (protein PSMD3 26S proteasome non-ATPase regulatory subunit 3 (O43242)) was 426-440 and the “Labeled Peptide” value (protein PTBP1 Polypyrimidine tract-binding protein 1 (P26599)) was 219-238. The “Labeled Peptide” value (protein Q8NBX0 SCCPDH Saccharopine dehydrogenase-like oxidoreductase) was 145-167, the “Labeled Peptide” value (protein Q8TBP6 SLC25A40 Solute carrier family 25 member 40) was 136-152 and the “Labeled Peptide” value (protein Q8TCJ2 STT3B Dolichyl-diphosphooligosaccharide--protein glycosy) was 692-703. For the same compound, the “Labeled Peptide” value (protein Q9H2D1 SLC25A32 Mitochondrial folate transporter/carrier) was 118-145, the “Labeled Peptide” value (protein Q9H4I3 TRABD TraB domain-containing protein) was 235-253 and the “Labeled Peptide” value (protein Q9H061 TMEM126A Transmembrane protein 126A) was 85-105. The “Labeled Peptide” value (protein Q9NS69 TOMM22 Mitochondrial import receptor subunit TOM22 homolog) was 106-117, the “Labeled Peptide” value (protein Q9UBX3 SLC25A10 Mitochondrial dicarboxylate carrier) was 171-186 and the “Labeled Peptide” value (protein Q9Y230 RUVBL2 RuvB-like 2) was 315-330. For the same compound, the “Labeled Peptide” value (protein QIL1 Protein QIL1 (Q5XLP0)) was 15-36, the “Labeled Peptide” value (protein RAB7A Ras-related protein Rab-7a (P51149)) was 104-113 and the “Labeled Peptide” value (protein RAB7A Ras-related protein Rab-7a, residues of the probe-labeled peptide) was 104-113. For the same compound, the “Labeled Peptide” value (protein RABEPK Rab9 effector protein with kelch motifs (Q7Z6M1)) was 87-100, the “Labeled Peptide” value (protein RARS Arginine--tRNA ligase, cytoplasmic (P54136)) was 528-540 and the “Labeled Peptide” value (protein RARS Arginine--tRNA ligase, cytoplasmic, residues of the probe-labeled peptide) was 528-540. For the same compound, the “Labeled Peptide” value (protein RUVBL2 RuvB-like 2, residues of the probe-modified peptide) was 315-330, the “Labeled Peptide” value (protein TXNDC17 Thioredoxin domain-containing protein 17, residues of the probe-modified peptide) was 4-17 and the “Labeled Peptide” value (protein VPS33A Vacuolar protein sorting-associated protein 33A, residues of the probe-modified peptide) was 233-262. For the same compound, the “Labeled Peptide” value (protein YWHAQ 14-3-3 protein theta, residues of the probe-modified peptide) was 194-212, the “Labeled Peptide” value (residues of probe-labeled peptide on VDAC3 Voltage-dependent anion-slective channel protein, Accession # Q9Y277) was 164-174 and the “Labeled Peptide” value (residues of probe-labeled peptide on VMP1 Vacuole membrane protein 1, Accession # Q96GC9) was 214-243. For the same compound, the “Labeled Peptide” value (residues of probe-labeled peptide on VPS33A Vacuolar protein sorting-associated protein 33A, Accession # Q96AX1) was 233-262, the “Labeled Peptide” value (residues of probe-labeled peptide on VPS51 Vacuolar protein sorting-associated protein 51 hom, Accession # Q9UID3) was 742-763 and the “Labeled Peptide” value (residues of probe-labeled peptide on YWHAQ 14-3-3 protein theta, Accession # P27348) was 194-212.
